Key:
[1] = tested on: oxytocin-induced uterine contractions; experiment: In vivo model for inhibition of oxytocin-induced uterine contractions; parameters: species or system rat; settings: dose 10 mg/kg, anaesthetised DES-treated non-pregnant female rats
Method: f) In vivo Model for Inhibition of Uterine Contractions
The assay evaluates the biological effect of tested compounds in an in vivo model of preterm labor, premature birth.
Non-pregnant Charles River CD (SD) BR female rats (9-10 weeks old, 200-250 g) were treated at 18 and 24 hours before the experiment with 250 μg/kg, i.p. diethylstilbestrol (DES). For the assay, the animal was anaesthetised with urethane (1.75 g/kg, i.p.) and placed on a homeothermic operating table. The trachea was isolated and cannulated with a suitable polyethylene (PE) tubing. A midline incision at the hypogastrium level was made and one uterine horn exposed, its cephalic end cannulated with a PE240 tubing and, after filling the internal cavity with 0.2 ml of sterile physiological saline, connected to a “Gemini” amplifying/recording system via a P23ID Gould Statham pressure transducer. […]
The contractile response of the uterus to oxytocin was quantified by measuring the intra-uterine pressure and the number of contractions. The effect of the reference and test compounds was evaluated by comparing pre- and post-treatment pressure values. […]
The activities of the triazole derivatives claimed in the Formula I can be assessed using the above described in vivo biological assay. […]

[2] = target: T1, hOT receptor (Homo sapiens, UniProt P30559); experiment: Inhibition of oxytocin mediated Ca2+-mobilization by FLIPR in HEK293EBNA cells expressing the hOT receptor; format: cell-based; settings: OT 40 nM, fluo-4 FLIPR, read-out: Inhibition of Ca2+ mobilisation, hOT-R IC50
T1 construct: expressed in transfected cells; host or cells: HEK293EBNA
T1 sequence (P30559 1-389): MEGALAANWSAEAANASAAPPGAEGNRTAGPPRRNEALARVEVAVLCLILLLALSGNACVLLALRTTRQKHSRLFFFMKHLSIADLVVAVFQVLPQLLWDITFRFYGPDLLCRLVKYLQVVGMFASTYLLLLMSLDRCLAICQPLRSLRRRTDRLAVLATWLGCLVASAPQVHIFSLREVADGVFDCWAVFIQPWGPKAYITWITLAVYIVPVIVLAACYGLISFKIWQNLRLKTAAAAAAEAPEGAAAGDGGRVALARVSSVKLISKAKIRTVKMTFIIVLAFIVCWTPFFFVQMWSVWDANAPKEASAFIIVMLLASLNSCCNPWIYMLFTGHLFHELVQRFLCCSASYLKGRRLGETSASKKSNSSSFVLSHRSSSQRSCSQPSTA
Source text: c) Functional Assay No. 1: Inhibition of Oxytocin Mediated Ca^2+-mobilization by FLIPR® (Fluorimetric Imaging Plate Reader)
The action of OT on the OT-receptor triggers a complex cascade of events in the cell which leads to an increase in the intra-cytoplasmic Ca^2+ concentration. This increase in Ca^2+ concentration results from both calcium release from the sarcoplasmic reticulum (calcium stores) into the cytoplasm and from calcium influx from the extracellular space through Ca^2+ channels. This Ca^2+ mobilization into the cytoplasm triggers the contractile machinery of the myometrial cells which leads to uterine contractions (4 and 19).
This assay allows the measurement of the inhibition of OT/OT-R mediated calcium mobilization by test compounds of formula (1).
FLIPR® is a fluorimetric imaging device using a laser (Argon-ion laser) for simultaneous illumination and reading (cooled CCD camera) of each well of a 96-well-plate, thus enabling rapid measurements on a large number of samples.
Preparing the plates: FLIPR-plates were pre-coated with PLL (Poly-L-Lysine) 10 μg/ml+0.1% gelatine to attach HEK293EBNA cells (Human Embryonic Kidney cells expressing the hOT receptor) and incubated for 30 min up to 2 days at 37° C. The cells were plated out into 96-well-plates (60000 cells/well).
Labelling with fluo-4: 50 μg of fluo-4 (Ca2+ sensitive fluorescent dye) were dissolved in 20 μl pluronic acid (20% in DMSO). The dissolved fluo-4 was then diluted in 10 ml DMEM ([…])-F12 culture medium. […]
The relative fluorescence of Fluo (λex=488 nm, λem=590 nm) is then measured by the FLIPR in presence or absence of compounds of formula (I). The fluorescence of the marker being sensitive to the amount of Ca^2+, the Ca^2+ movements can be detected. Then, it can be determined the ability of compounds of formula (I) to antagonize the oxytocin-induced intracellular Ca^2+-mobilization mediated by the oxytocin receptor.
The activities of the triazole derivatives according to formula I were assessed using the above described in vitro biological assay. […]

[3] = target: T2, human Oxytocin (hOT) receptor (Homo sapiens, UniProt P30559); experiment: In vitro competition binding assay on hOT receptor with scintillation proximity assay ([125I]-OVTA); settings: inhibition of 125I-OVTA binding; membranes from HEK293EBNA cells expressing the hOT receptor; read-out: Binding Affinity hOT-R (Ki)
T2 construct: expressed in transfected cells; host or cells: HEK293EBNA (membranes)
T2 sequence (P30559 1-389): T1 sequence (P30559 1-389)
Method: a) In vitro Competition Binding Assay on hOT Receptor with Scintillation Proximity Assay (18).
This assay allows to determine the affinity of the test compounds for the human Oxytocin (hOT) receptor. Membranes from HEK293EBNA (cells expressing the hOT receptor) were suspended in buffer containing 50 mM Tris-HCl, pH 7.4, 5 mM MgCl2 and 0.1% BSA (w/v). The membranes ([…]) were mixed with 0.1 mg SPA bead coated with wheat-germ aglutinin (WGA-PVT-Polyethylene Imine beads from Amersham) and […] of the radiolabelled [^125I]-OVTA (OVTA being Omithin Vasoactive, an analogue of OT for competitive binding experiments). Non-specific binding was determined in the presence of 1 μM Oxytocin. The total assay volume was 100 μL. The plates (Corning® NBS plate) were incubated at room temperature for 30 min and counted on a Mibrobeta® plate scintillation counter. Competitive binding was performed in presence of compounds of formula (1) at the following concentrations: 30 μM, 10 μM, 1 μM, 300 nM, 100 nM 10 nM, 1 nM, 100 pM, 10 pM. The competitive binding data were analysed using the iterative, nonlinear, curve-fitting program, “Prism” (GraphPad Software, Inc).
The ability of triazole derivatives of formula (I) to inhibit the binding of ^125I-OVTA to the OT-receptor was assessed using the above described in vitro biological assay. Representative values for some example compounds are given in Table 3 where the binding affinity of the compounds is expressed by the inhibition constant (Ki; μM). From these values, it can be derived that said test compounds according to formula I do show a significant binding to the oxytocin receptor.

Row | Structure (SMILES) | IC50 [2] [µM] | Ki [3] [µM] | % Reduction of Uterine Contraction [1] [%]
1 | COCCCn1c(CCC(=O)NCc2ccccc2OC)nnc1SCc1cccc(Cl)c1 [Example 4, 3-[5-[(3-chlorobenzyl)sulfanyl]-4-(3-methoxypropyl)-4H-1,2,4-triazol-3-yl]-N-(2-methoxybenzyl)propanamide] | – | 0.326 | –
2 | COc1ccccc1CNC(=O)CCc1nnc(SCc2cccc(F)c2)n1-c1ccc(C)cc1 [Example 5, 3-[5-[(3-fluorobenzyl)sulfanyl]-4-(4-methylphenyl)-4H-1,2,4-triazol-3-yl]-N-(2-methoxybenzyl)propanamide] | – | 0.127 | –
3 | COc1ccccc1CNC(=O)CCc1nnc(SCc2cccc(C)c2)n1Cc1ccc(C)cc1 [Example 6, N-(2-methoxybenzyl)-3-{4-(4-methylbenzyl)-5-[(3-methylbenzyl)sulfanyl]-4H-1,2,4-triazol-3-yl}propanamide] | – | 0.246 | –
4 | COc1ccccc1CNC(=O)CCc1nnc(SCc2ccccc2)n1-c1ccc(C)cc1 [Example 9, 3-[5-(benzylsulfanyl)-4-(4-methylphenyl)-4H-1,2,4-triazol-3-yl]-N-(2-methoxybenzyl)propanamide] | – | 0.205 | –
5 | CCCCNC(=O)CCc1nnc(SCc2cccc(Cl)c2)n1-c1cccc(Cl)c1 [Example 15, N-butyl-3-[5-[(3-chlorobenzyl)sulfanyl]-4-(3-chlorophenyl)-4H-1,2,4-triazol-3-yl]propanamide] | – | 0.245 | –
6 | COc1ccccc1CNC(=O)CCCc1nnc(SCc2cccc(Cl)c2)n1-c1ccccc1 [Example 137, 4-{5-[(3-chlorobenzyl)sulfanyl]-4-phenyl-4H-1,2,4-triazol-3-yl}-N-(2-methoxybenzyl)butanamide] | 0.486 | 2.55 | –
7 | COc1ccccc1CNC(=O)CCCCc1nnc(SCc2cccc(Cl)c2)n1-c1ccccc1 [Example 185, 5-{5-[(3-chlorobenzyl)sulfanyl]-4-phenyl-4H-1,2,4-triazol-3-yl}-N-(2-methoxybenzyl)pentanamide] | 0.058 | 0.603 | –
8 | COc1ccccc1CNC(=O)CCCCc1nnc(SCc2cccc(C)c2)n1CCc1ccccc1 [Example 189, N-(2-methoxybenzyl)-5-[5-[(3-methylbenzyl)sulfanyl]-4-(2-phenylethyl)-4H-1,2,4-triazol-3-yl]pentanamide] | – | 0.515 | –

Second part, led by results:

Row | IC50 [2] [µM] | Ki [3] [µM] | Structure (SMILES) | % Reduction of Uterine Contraction [1] [%]
9 | 0.026 | 0.045 | COc1cccc(-n2c(CCC(=O)NCc3ccccc3OC)nnc2SCc2cccc(Cl)c2)c1 [Example 1, 3-[5-[(3-chlorobenzyl)sulfanyl]-4-(3-methoxyphenyl)-4H-1,2,4-triazol-3-yl]-N-(2-methoxybenzyl)propanamide] | 16.9 ± 5.1
10 | – | 0.134 | COc1ccccc1CNC(=O)CCc1nnc(SCc2cccc(C)c2)n1-c1cccc(Cl)c1 [Example 3, 3-{4-(3-chlorophenyl)-5-[(3-methylbenzyl)sulfanyl]-4H-1,2,4-triazol-3-yl}-N-(2-methoxybenzyl)propanamide] | –
11 | – | 0.229 | COc1ccccc1CNC(=O)CCc1nnc(SCc2cccc(Cl)c2)n1-c1cccc(C)c1 [Example 8, 3-[5-[(3-chlorobenzyl)sulfanyl]-4-(3-methylphenyl)-4H-1,2,4-triazol-3-yl]-N-(2-methoxybenzyl)propanamide] | –
12 | – | 0.329 | COc1ccccc1CNC(=O)CCc1nnc(SCc2ccc(F)cc2)n1-c1cccc(Cl)c1 [Example 11, 3-{4-(3-chlorophenyl)-5-[(4-fluorobenzyl)sulfanyl]-4H-1,2,4-triazol-3-yl}-N-(2-methoxybenzyl)propanamide] | –
13 | – | 0.439 | COc1ccccc1CNC(=O)CCc1nnc(SCc2ccccc2)n1-c1cccc(Cl)c1 [Example 12, 3-[5-(benzylsulfanyl)-4-(3-chlorophenyl)-4H-1,2,4-triazol-3-yl]-N-(2-methoxybenzyl)propanamide] | –
14 | – | 0.197 | COc1cccc(-n2c(CCC(=O)NCc3ccccc3OC)nnc2SCc2cccc(C)c2)c1 [Example 16, N-(2-methoxybenzyl)-3-{4-(3-methoxyphenyl)-5-[(3-methylbenzyl)sulfanyl]-4H-1,2,4-triazol-3-yl}propanamide] | –
15 | – | 0.481 | COc1ccccc1CNC(=O)CCCCc1nnc(SCc2cccc(Cl)c2)n1-c1cccc(Cl)c1 [Example 184, 5-[5-[(3-chlorobenzyl)sulfanyl]-4-(3-chlorophenyl)-4H-1,2,4-triazol-3-yl]-N-(2-methoxybenzyl)pentanamide] | –

— US7468385B2, “Triazoles as oxytocin antagonists” (Laboratoires Serono SA, priority 2001, dated 2008)
